Laboratory results: patent US8026218B2, “Bifunctional analgesic compounds for opioid receptor agonists and neurokinin-1 receptor antagonists” (The University of Arizona, priority 2006, dated 2011)
“And” between values parts separate entries of the source, which are not always exact repeats. Identical values can stand only once. “Also recorded” adds a separate entry of the source. Like-named read-outs stand apart in the source and are kept apart here.

Key:
[1] = target: T1, human NK1 receptor (hNK1) (Homo sapiens, UniProt P25103); conditions: Cascieri 1994; cited from earlier work
T1 construct: expressed in transfected cells

[2] = target: T2, Substance P receptors (guinea pig NK1) (Cavia porcellus, UniProt P30547); test: Guinea pig isolated ileum (GPI) assay with substance P stimulation in presence of 1 μM naloxone
T2 construct: from tissue; host or cells: guinea pig (Hartley) ileum LMMP, 1 μM naloxone present

[3] = test system: male Sprague Dawley rats; test: Anti-nociception, infrared radiant heat paw withdrawal latency; type: in vivo, rat; conditions: i.th.
Experimental: (§1) To estimate the analgesic potency of the chimeric compounds, anti-nociceptive, anti-hyperalgecia and anti-allodynic efficacies is tested via intrathecal (i.th.) or systemic (s.c.) administration of the compounds in L5/L6 spinal nerve ligated (SNL) male Sprague Dawley rats. Anti-nociception and anti-hyperalgecia were determined by using the infrared thermal testing, wherein paw withdrawal latencies were measured in response to a mobile radiant heat (FIG. 7-14). Anti-allodynic effect was measured in von Frey filamental testing (FIG. 7-14). Both chronic and acute animal models were tested ([…]).
(§2) In vivo Biological Activity. […] Food and water was available ad libitum. […] I.th. […] Each training session lasted three minutes. […] Discussion.

[4] = target: T3, δ opioid receptors (MVD) (Mus musculus, UniProt P32300); test: Mouse isolated vas deferens (MVD) assay, opioid agonist
T3 construct: from tissue; host or cells: mouse (ICR) isolated vas deferens

[5] = test system: male Sprague Dawley rats; test: Observation of toxicity throughout the in vivo studies; design: species or system rat
From the text: as §2
These assays gave the inventors very encouraging results.

[6] = Solubility in HEPES buffer; type: physicochemical; conditions: pH 7.4; 0.05 N HEPES buffer in 0.1 N NaCl solution
Experimental: Solubility. HEPES buffer (0.05 M HEPES buffer in 0.1 M NaCl, pH 7.4, 500 μL) was added to 1 mg of compound. The sample was vortexed for 30 sec, sonicated for 5 min, shaken at r.t. for 2 h, and then allowed to be stayed overnight to equilibration. The sample was filtrated with an Acrodisc Syringe Filter (13 mm, 0.45 μm pore, PTFE membrane, Pall Life Sciences, East Hills, N.Y.).

[7] = Brain distribution, in situ perfusion model; type: in vivo; conditions: FIG. 20
[8] = test system: normal, uninjured rats; test: Rotarod motor skill test; conditions: highest analgesic dose 30 μg
[9] = Octanol/saline distribution (logD7.4); type: physicochemical; conditions: 0.05 N HEPES buffer in 0.1 N NaCl
[10] = target: T4, human δ opioid receptors (hDOR) (Homo sapiens, UniProt P41143); test: Radioligand competition binding, [3H]DPDPE, hDOR membranes; conditions: membranes from transfected HN9.10 cells
T4 construct: expressed in transfected cells; host or cells: HN9.10 neuroblastoma cell line, pCDNA3, neomycin-selected clones

[11] = target: T4, human δ opioid receptors (hDOR); test: [35S]GTP-γ-S binding assay, hDOR; type: biochemical
[12] = target: T5, rat NK1 (rNK1) receptor (Rattus norvegicus, UniProt P14600); test: Radioligand competition binding, [3H]substance P, rNK1/CHO membranes; conditions: for IC50: membranes from transfected CHO cells
T5 construct: expressed in transfected cells; host or cells: CHO (rNK-1/CHO cell line from Dr. James Krause)

[13] = test system: μ opioid receptors (GPI); test: Guinea pig isolated ileum (GPI) assay, opioid agonist;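 note: inhibition of electrically evoked contractions (0.1 Hz, 0.4 msec, supramaximal voltage) in organ baths at 37 °C, contraction height 3 min after each cumulative dose versus the 1 min before dosing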
Experimental: Guinea Pig Isolated Ileum Assay. […] These tissues were tied to gold chains with suture silk and mounted between platinum wire electrodes in 20 mL organ baths at a tension of 1 g and bathed in oxygenated (95:5 O2:CO2) Kreb's bicarbonate buffer at 37° C. and stimulated electrically (0.1 Hz, 0.4 msec duration) at supramaximal voltage. Following an equilibration period, compounds were added cumulatively to the bath in volumes of 14-60 μL until maximum inhibition was reached. A baseline PL-017 was constructed to determine tissue integrity and allow calculation of antagonist activity before opioid analog testing began.
For opioid data analysis, percentage inhibition was calculated using the average tissue contraction height for 1 min preceding the addition of the agonist divided by the contraction height 3 min after exposure to the dose of agonist. […] IC50 and Emax estimates were determined by computerized nonlinear least-squares analysis (the pharmacological statistics package FlashCalc: Dr. Michael Ossipov, University of Arizona, Tucson, Ariz.). […] A50 values represent the mean of not less than 4 tissues. A50 and Emax estimates were determined by computerized nonlinear least-squares analysis (FlashCalc).

[14] = test system: L5/L6 spinal nerve ligated (SNL) male Sprague Dawley rats; test: Anti-allodynia, von Frey filament testing in L5/L6 SNL rats; type: in vivo, rat; conditions: for anti-allodynic effect against mechanical stimulation: SNL rats, words
Experimental: as §1, §2

[15] = target: T6, rat μ opioid receptors (rMOR) (Rattus norvegicus, UniProt P33535); test: biochemical; type: biochemical
T6 construct: expressed in transfected cells; host or cells: HN9.10 neuroblastoma cell line, pCDNA3, neomycin-selected clones

[16] = test system: L5/L6 spinal nerve ligated (SNL) male Sprague Dawley rats; test: Anti-hyperalgesia, infrared radiant heat in L5/L6 SNL rats; type: in vivo, rat
Experimental: as §1, §2

[17] = target: T1, human NK1 receptor (hNK1); test: Radioligand competition binding, [3H]-Substance P, hNK1; conditions: Ki rNK1 vs Ki hNK1
[18] = test system: normal, uninjured rats; conditions: reported; cited from earlier work
[19] = chronic, i.th., SNL-operated animals

T2 sequence (P30547 whole entry): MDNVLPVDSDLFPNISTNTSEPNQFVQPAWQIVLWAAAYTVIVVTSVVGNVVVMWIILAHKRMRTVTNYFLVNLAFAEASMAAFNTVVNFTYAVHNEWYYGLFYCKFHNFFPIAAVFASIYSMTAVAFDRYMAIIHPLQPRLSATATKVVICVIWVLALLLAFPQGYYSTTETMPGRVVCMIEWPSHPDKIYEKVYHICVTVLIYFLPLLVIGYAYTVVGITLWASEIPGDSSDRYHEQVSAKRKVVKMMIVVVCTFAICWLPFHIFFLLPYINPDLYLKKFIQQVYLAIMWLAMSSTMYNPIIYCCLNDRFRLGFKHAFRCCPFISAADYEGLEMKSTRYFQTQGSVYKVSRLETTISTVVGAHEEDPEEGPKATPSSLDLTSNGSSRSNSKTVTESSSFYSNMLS
T4 sequence (P41143 whole entry): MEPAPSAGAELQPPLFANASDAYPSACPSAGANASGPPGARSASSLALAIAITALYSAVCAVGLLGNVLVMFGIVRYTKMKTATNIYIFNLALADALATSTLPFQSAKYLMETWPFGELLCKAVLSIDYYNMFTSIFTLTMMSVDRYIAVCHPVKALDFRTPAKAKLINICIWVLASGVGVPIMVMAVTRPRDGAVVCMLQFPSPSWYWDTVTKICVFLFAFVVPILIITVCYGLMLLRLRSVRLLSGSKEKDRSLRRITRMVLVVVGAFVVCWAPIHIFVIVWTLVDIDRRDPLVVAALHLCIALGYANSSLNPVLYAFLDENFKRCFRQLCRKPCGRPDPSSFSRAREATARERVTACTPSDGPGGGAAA
T5 sequence (P14600 whole entry): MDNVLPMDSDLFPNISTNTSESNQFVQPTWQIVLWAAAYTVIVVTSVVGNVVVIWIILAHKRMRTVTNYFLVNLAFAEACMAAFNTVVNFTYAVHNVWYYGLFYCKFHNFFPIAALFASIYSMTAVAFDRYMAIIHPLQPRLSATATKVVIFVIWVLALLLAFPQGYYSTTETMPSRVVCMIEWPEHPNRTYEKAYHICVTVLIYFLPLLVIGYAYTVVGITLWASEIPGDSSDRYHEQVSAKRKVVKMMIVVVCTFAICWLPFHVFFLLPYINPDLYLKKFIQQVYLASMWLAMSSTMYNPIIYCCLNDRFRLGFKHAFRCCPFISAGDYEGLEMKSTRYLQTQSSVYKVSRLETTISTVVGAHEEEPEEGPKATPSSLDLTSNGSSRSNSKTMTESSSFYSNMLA
T6 sequence (P33535 whole entry): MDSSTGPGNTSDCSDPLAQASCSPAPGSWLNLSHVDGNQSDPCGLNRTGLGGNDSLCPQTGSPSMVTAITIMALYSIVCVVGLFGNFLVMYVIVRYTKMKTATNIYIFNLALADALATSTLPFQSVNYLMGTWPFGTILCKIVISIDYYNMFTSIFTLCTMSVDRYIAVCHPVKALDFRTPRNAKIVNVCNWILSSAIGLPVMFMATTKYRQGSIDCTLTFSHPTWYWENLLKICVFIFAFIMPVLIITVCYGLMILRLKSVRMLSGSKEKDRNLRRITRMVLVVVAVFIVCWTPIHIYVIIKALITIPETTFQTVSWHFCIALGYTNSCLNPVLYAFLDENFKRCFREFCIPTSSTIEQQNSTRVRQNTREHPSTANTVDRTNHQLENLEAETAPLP
T1 sequence (P25103 whole entry): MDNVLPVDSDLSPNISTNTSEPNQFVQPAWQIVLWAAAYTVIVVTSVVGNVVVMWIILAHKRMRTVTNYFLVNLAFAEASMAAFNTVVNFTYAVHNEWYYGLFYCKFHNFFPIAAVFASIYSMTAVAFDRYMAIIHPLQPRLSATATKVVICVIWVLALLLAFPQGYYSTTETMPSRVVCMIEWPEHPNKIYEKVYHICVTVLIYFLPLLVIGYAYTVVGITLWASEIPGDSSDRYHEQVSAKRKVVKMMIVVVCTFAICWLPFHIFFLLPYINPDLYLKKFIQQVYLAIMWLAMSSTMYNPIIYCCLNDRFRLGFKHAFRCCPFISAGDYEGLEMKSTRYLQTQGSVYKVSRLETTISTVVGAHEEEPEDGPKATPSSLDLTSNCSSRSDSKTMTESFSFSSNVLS
T3 sequence (P32300 whole entry): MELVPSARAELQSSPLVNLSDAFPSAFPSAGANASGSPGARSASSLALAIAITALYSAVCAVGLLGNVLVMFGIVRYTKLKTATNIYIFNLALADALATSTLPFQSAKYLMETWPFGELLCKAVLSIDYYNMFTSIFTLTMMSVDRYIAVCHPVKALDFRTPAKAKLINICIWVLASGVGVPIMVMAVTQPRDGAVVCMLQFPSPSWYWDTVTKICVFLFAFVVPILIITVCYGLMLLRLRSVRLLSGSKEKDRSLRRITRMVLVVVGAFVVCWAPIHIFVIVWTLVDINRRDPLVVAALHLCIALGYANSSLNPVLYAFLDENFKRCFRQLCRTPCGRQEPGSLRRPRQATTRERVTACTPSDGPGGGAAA

CC(=O)N[C@@H](Cc1c[nH]c2ccccc12)C(=O)OCc1cc(C(F)(F)F)cc(C(F)(F)F)c1 [L-732,138, Ac-Trp-3,5-O-Bzl(CF3)2, reference compound]
less affinity for rNK1 than hNK1 receptor [1]: 200 fold
Substance P antagonist, GPI, Ke ([2]; Table 16, in the presence of 1 μM naloxone): 250 ± 87 nM
Substance P antagonist, GPI, Ke ([2]; Table 22, in the presence of 1 μM naloxone): 250 ± 87 nM
Substance P antagonist, GPI, Ke ([2]; in the presence of 1 μM naloxone): 247 nM
Substance P antagonist, GPI, Ke ([2]; in the presence of 1 μM naloxone, 138): 247 ± 87 nM and 250 ± 87 nM

CSCC[C@H](NC(=O)[C@H](Cc1ccccc1)NC(=O)CNC(=O)[C@@H](C)NC(=O)[C@@H](N)Cc1ccc(O)cc1)C(=O)N1CCC[C@H]1C(=O)N[C@@H](CC(C)C)C(=O)N[C@@H](Cc1c[nH]c2ccccc12)C(=O)OCc1cc(C(F)(F)F)cc(C(F)(F)F)c1 [TY005, H-Tyr-D-Ala-Gly-Phe-Met-Pro-Leu-Trp-O-3,5-Bzl(CF3)2]
time after administration at which efficacy disappeared [3]: 45 min
anti-nociceptive effect ([3]; infrared radiant heat, words): very potent; also recorded: distinct anti-nociceptive effect
IC50 [4]: 22.3 nM
sign of toxicity [5]: without any sign of toxicity; also recorded: no sign of toxicity
solubility [6]: < 0.2 µg/mL
blood brain barrier penetration [7]: penetrate blood brain barrier
sensorimotor impairment in rotarod test [8]: no sensorimotor impairment
logD7.4 [9]: >4.0
LogIC50, hDOR, [3H]DPDPE [10]: −8.22 ± 0.06
Emax ([11]; read-out: Emax, hDOR, [35S]GTP-γ-S binding): 51%
Emax ([11]; read-out: GTP binding hDOR Emax): 47.6%
Emax ([11]; read-out: GTP binding hDOR Emax (%)): 47.6%
Kb ([2]; Substance P antagonist, GPI, Ke, in the presence of 1 μM naloxone): 24.7 ± 8.8 nM
activation at 1 µM ([2]; read-out: Substance P GPI agonist (A50), at 1 μM, contraction relative to initial muscle contraction with KCl): 0%
Ki ([12]; Affinity rNK1 (Ki; nM), Table 29): 0.2 nM
IC50 ([12]; IC50, rNK1, Substance P radioligand): 6.4 nM
IC50 ([12]; LogIC50, rNK1, Substance P radioligand): 6.03 nM
IC50 ([13]; Table 16, electrically stimulated isolated tissue, read-out: Opioid agonist GPI (μ), IC50): 360 ± 130 nM
IC50 ([13]; Table 28, read-out: GPI/LMMP Opioid(m) Agonist (IC50; nM)): 359 nM
IC50 ([13]; Table 30, read-out: GPI/LMMP Opioid(m) Agonist (IC50; nM)): 359 nM
IC50 ([13]; Table 39, read-out: GPI/LMMP opioid(mu) agonist (IC50; nM)): 359 nM
IC50 ([13]; electrically stimulated isolated tissue, read-out: GPI (μ), IC50): 359 ± 127 nM
anti-allodynic effect against mechanical stimulation [14]: very potent anti-allodynic effect
mechanical allodynia after chronic administration [14, 19]: reverses mechanical allodynia
Emax ([15]; read-out: Emax, rMOR, [35S]GTP-γ-S binding): 45%
Emax ([15]; read-out: GTP binding rMOR Emax): 45.6%
Emax ([15]; read-out: GTP binding rMOR Emax (%)): 45.6%
anti-hyperalgesic recovery ([16]; 30 μg i.th., SNL rats): ~100%
thermal hyperalgesia after chronic administration [16, 19]: attenuates thermal hyperalgesia
anti-hyperalgesic efficacy ([16]; i.th., SNL rats, words): very potent; also recorded: Dose dependent anti-hyperalgesic efficacy
species difference between affinities at rNK1 and hNK1 [17]: 3.4 fold

CN1CC[C@]23c4c5ccc(O)c4O[C@H]2[C@@H](O)C=C[C@H]3[C@H]1C5 [morphine, reference compound]
rotarod performance [18]: impaired performance
anti-allodynic effect against mechanical stimulation [14]: negligible anti-allodynic efficacy
